Tests used:
Flp-In™ T-REx™-293 cells [1] = experiment: Succinate oxidation by digitonin-permeabilized cells, Clark oxygen electrode; type: cell-based, human; conditions: AOX-induced cells
Drosophila mitochondria = type: biochemical, Drosophila melanogaster
Flp-In™ T-REx™-293 cells [2] = experiment: Respiration of digitonin-permeabilized transduced or transfected cells; type: cell-based, human; conditions: 10 µM n-propyl gallate

CCCOC(=O)c1cc(O)c(O)c(O)c1 [n-propyl gallate]
inhibition of cyanide-resistant succinate oxidation (Flp-In™ T-REx™-293 cells [1]; 100 µM propyl gallate added after cyanide): fully inhibited
inhibition of oxygen uptake (Flp-In™ T-REx™-293 cells [1]; propyl gallate in the absence of cyanide): 5%
effect of AOX inhibitors on respiration (Drosophila mitochondria): only a small effect
sensitivity of residual cyanide-insensitive respiratory activity to AOX inhibitors (Drosophila mitochondria): sensitive
inhibition of residual respiration in the presence of cyanide (Flp-In™ T-REx™-293 cells [2]; pWPI-AOX-transduced cells): completely inhibited
inhibition of respiration in the presence of cyanide (Flp-In™ T-REx™-293 cells [2]; pcDNA5-AOX-transfected cells): almost completely inhibited
